System: Human patients with short bowel syndrome
Test: Example 2: liver biomarkers (albumin, gamma glutamyl transferase, total bilirubin, ALT, AST, ALP) in short bowel syndrome patients, every four weeks for 24 weeks
Assay type: in vivo
Procedure: To further confirm the results of Example 1, a further study was conducted involving more individuals and additional diagnostic biomarkers. Human patients with short bowel syndrome were divided into two groups: a control group (43 total individuals) to receive placebo, and an experimental group (42 total individuals) to receive teduglutide at 0.05 mg/kg/day throughout the study. Patients were treated by subcutaneous injection of placebo or the appropriate dose of teduglutide. Known biomarkers of liver function were monitored every four weeks, for 24 weeks. The liver biomarkers tested included albumin, gamma glutamyl transferase, total bilirubin, ALT and AST and ALP. Before administration of placebo or teduglutide, diagnostic biomarker levels were tested to establish a baseline for each individual.
To determine the effect of GLP-2 on the levels of the diagnostic biomarkers, the average level of each biomarker was measured for the placebo and teduglutide treated groups for each visit. Furthermore, the average change from baseline was calculated using the established baseline values. For FIGS. 17-28, p-values were calculated using the t-test.
P values are provided, which were calculated for each distribution of biomarker changes for each week using the chi-squared test.

[1] = Endpoint (last assessment after start of treatment), 0.05 mg/kg/d, n=42
[2] = Endpoint (last assessment), 0.05 mg/kg/d, m=42

SMILES: CC[C@H](C)[C@H](NC(=O)[C@H](Cc1ccccc1)NC(=O)[C@H](CC(=O)O)NC(=O)[C@H](CCCNC(=N)N)NC(=O)[C@H](C)NC(=O)[C@H](C)NC(=O)[C@H](CC(C)C)NC(=O)[C@H](CC(N)=O)NC(=O)[C@H](CC(=O)O)NC(=O)[C@H](CC(C)C)NC(=O)[C@@H](NC(=O)[C@@H](NC(=O)[C@H](CC(N)=O)NC(=O)[C@H](CCSC)NC(=O)[C@H](CCC(=O)O)NC(=O)[C@H](CC(=O)O)NC(=O)[C@H](CO)NC(=O)[C@H](Cc1ccccc1)NC(=O)[C@H](CO)NC(=O)CNC(=O)[C@H](CC(=O)O)NC(=O)CNC(=O)[C@@H](N)Cc1c[nH]cn1)[C@@H](C)O)[C@@H](C)CC)C(=O)N[C@@H](CC(N)=O)C(=O)N[C@@H](Cc1c[nH]c2ccccc12)C(=O)N[C@@H](CC(C)C)C(=O)N[C@H](C(=O)N[C@@H](CCC(N)=O)C(=O)N[C@H](C(=O)N[C@@H](CCCCN)C(=O)N[C@H](C(=O)N[C@H](C(=O)N[C@@H](CC(=O)O)C(=O)O)[C@@H](C)O)[C@@H](C)CC)[C@@H](C)O)[C@@H](C)CC [teduglutide]
- average level of diagnostic biomarkers elevated in liver dysfunction versus placebo cohort (0.05 mg/kg/day): lower level, on average
- likelihood of a >10% decrease in liver biomarkers versus placebo (0.05 mg/kg/day): more likely
- likelihood of a >10% increase in liver biomarkers versus placebo (0.05 mg/kg/day): less likely
- measured level of albumin relative to placebo cohort (0.05 mg/kg/day, as treatment progressed): became elevated
- ALKALINE PHOSPHATASE Change from Baseline, Median [1]: −22 U/L
- ALT Change from Baseline, Mean [1]: −12.1 U/L
- ALT Change from Baseline, Median [1]: −4 U/L
- ALT Observed Value, Mean [1]: 31.0 U/L
- ALT Observed Value, Median [1]: 23.5 U/L
- AST Change from Baseline, Mean [1]: −5.4 U/L
- AST Change from Baseline, Median [1]: −3 U/L
- AST Observed Value, Mean [1]: 27.0 U/L
- AST Observed Value, Median [1]: 24 U/L
- Albumin Change from Baseline, Mean [1]: -0.5 g/L
- Albumin Change from Baseline, Median [1]: 0 g/L
- Albumin Observed Value, Mean [1]: 41.9 g/L
- Albumin Observed Value, Median [1]: 42 g/L
- Alkaline Phosphatase Change from Baseline, Mean [1]: −28.3 U/L
- Alkaline Phosphatase Observed Value, Mean [1]: 106.4 U/L
- Alkaline Phosphatase Observed Value, Median [1]: 90.5 U/L
- Bilirubin Change from Baseline, Mean [1]: -3.33 µmol/L
- Bilirubin Change from Baseline, Median [1]: -1.95 µmol/L
- Bilirubin Observed Value, Mean [1]: 8.87 µmol/L
- Bilirubin Observed Value, Median [1]: 6.95 µmol/L
- Gamma Glutamyl Transferase Change from Baseline, Mean [1]: −12.8 U/L
- Gamma Glutamyl Transferase Change from Baseline, Median [1]: −6 U/L
- Gamma Glutamyl Transferase Observed Value, Mean [1]: 62.3 U/L
- Gamma Glutamyl Transferase Observed Value, Median [1]: 42 U/L
- ALT >10% decrease from Baseline, % of subjects [2]: (59.5%)
- ALT >10% decrease from Baseline, n subjects [2]: 25
- ALT >10% increase from Baseline, % of subjects [2]: (11.9%)
- ALT >10% increase from Baseline, n subjects [2]: 5
- ALT Within 10% of Baseline, % of subjects [2]: (28.6%)
- ALT Within 10% of Baseline, n subjects [2]: 12
- AST >10% decrease from Baseline, % of subjects [2]: (59.5%)
- AST >10% decrease from Baseline, n subjects [2]: 25
- AST >10% increase from Baseline, % of subjects [2]: (14.3%)
- AST >10% increase from Baseline, n subjects [2]: 6
- AST Within 10% of Baseline, % of subjects [2]: (26.2%)
- AST Within 10% of Baseline, n subjects [2]: 11
- Albumin >10% decrease from Baseline, % of subjects [2]: (4.8%)
- Albumin >10% decrease from Baseline, n subjects [2]: 2
- Albumin >10% increase from Baseline, n subjects [2]: 0
- Albumin Within 10% of Baseline, % of subjects [2]: (95.2%)
- Albumin Within 10% of Baseline, n subjects [2]: 40
- Alkaline Phosphatase >10% decrease from Baseline, % of subjects [2]: (57.1%)
- Alkaline Phosphatase >10% decrease from Baseline, n subjects [2]: 24
- Alkaline Phosphatase >10% increase from Baseline, % of subjects [2]: (14.3%)
- Alkaline Phosphatase >10% increase from Baseline, n subjects [2]: 6
- Alkaline Phosphatase Within 10% of Baseline, % of subjects [2]: (28.6%)
- Alkaline Phosphatase Within 10% of Baseline, n subjects [2]: 12
- Bilirubin >10% decrease from Baseline, % of subjects [2]: (64.3%)
- Bilirubin >10% decrease from Baseline, n subjects [2]: 27
- Bilirubin >10% increase from Baseline, % of subjects [2]: (16.7%)
- Bilirubin >10% increase from Baseline, n subjects [2]: 7
- Bilirubin Within 10% of Baseline, % of subjects [2]: (19.0%)
- Bilirubin Within 10% of Baseline, n subjects [2]: 8
- ALT >10% decrease from Baseline, % of subjects (Week 2, 0.05 mg/kg/d, m=40): (57.5%)
- ALT >10% decrease from Baseline, n subjects (Week 2, 0.05 mg/kg/d, m=40): 23
- ALT >10% increase from Baseline, % of subjects (Week 2, 0.05 mg/kg/d, m=40): (17.5%)
- ALT >10% increase from Baseline, n subjects (Week 2, 0.05 mg/kg/d, m=40): 7
- ALT Within 10% of Baseline, % of subjects (Week 2, 0.05 mg/kg/d, m=40): (25.0%)
- ALT Within 10% of Baseline, n subjects (Week 2, 0.05 mg/kg/d, m=40): 10
- AST >10% decrease from Baseline, % of subjects (Week 2, 0.05 mg/kg/d, m=40): (50.0%)
- AST >10% decrease from Baseline, n subjects (Week 2, 0.05 mg/kg/d, m=40): 20
- AST >10% increase from Baseline, % of subjects (Week 2, 0.05 mg/kg/d, m=40): (12.5%)
- AST >10% increase from Baseline, n subjects (Week 2, 0.05 mg/kg/d, m=40): 5
- AST Within 10% of Baseline, % of subjects (Week 2, 0.05 mg/kg/d, m=40): (37.5%)
- AST Within 10% of Baseline, n subjects (Week 2, 0.05 mg/kg/d, m=40): 15
- Albumin >10% decrease from Baseline, % of subjects (Week 2, 0.05 mg/kg/d, m=40): (7.5%)
- Albumin >10% decrease from Baseline, n subjects (Week 2, 0.05 mg/kg/d, m=40): 3
- Albumin >10% increase from Baseline, n subjects (Week 2, 0.05 mg/kg/d, m=40): 0
- Albumin Within 10% of Baseline, % of subjects (Week 2, 0.05 mg/kg/d, m=40): (92.5%)
- Albumin Within 10% of Baseline, n subjects (Week 2, 0.05 mg/kg/d, m=40): 37
- Alkaline Phosphatase >10% decrease from Baseline, % of subjects (Week 2, 0.05 mg/kg/d, m=40): (37.5%)
- Alkaline Phosphatase >10% decrease from Baseline, n subjects (Week 2, 0.05 mg/kg/d, m=40): 15
- Alkaline Phosphatase >10% increase from Baseline, % of subjects (Week 2, 0.05 mg/kg/d, m=40): (15.0%)
- Alkaline Phosphatase >10% increase from Baseline, n subjects (Week 2, 0.05 mg/kg/d, m=40): 6
- Alkaline Phosphatase Within 10% of Baseline, % of subjects (Week 2, 0.05 mg/kg/d, m=40): (47.5%)
- Alkaline Phosphatase Within 10% of Baseline, n subjects (Week 2, 0.05 mg/kg/d, m=40): 19
- Bilirubin >10% decrease from Baseline, % of subjects (Week 2, 0.05 mg/kg/d, m=40): (70.0%)
- Bilirubin >10% decrease from Baseline, n subjects (Week 2, 0.05 mg/kg/d, m=40): 28
- Bilirubin >10% increase from Baseline, % of subjects (Week 2, 0.05 mg/kg/d, m=40): (17.5%)
- Bilirubin >10% increase from Baseline, n subjects (Week 2, 0.05 mg/kg/d, m=40): 7
- Bilirubin Within 10% of Baseline, % of subjects (Week 2, 0.05 mg/kg/d, m=40): (12.5%)
- Bilirubin Within 10% of Baseline, n subjects (Week 2, 0.05 mg/kg/d, m=40): 5
- ALKALINE PHOSPHATASE Change from Baseline, Median (Week 2, 0.05 mg/kg/d, n=40): −8 U/L
- ALT Change from Baseline, Mean (Week 2, 0.05 mg/kg/d, n=40): −8.9 U/L
- ALT Change from Baseline, Median (Week 2, 0.05 mg/kg/d, n=40): −5.5 U/L
- ALT Observed Value, Mean (Week 2, 0.05 mg/kg/d, n=40): 35.2 U/L
- ALT Observed Value, Median (Week 2, 0.05 mg/kg/d, n=40): 27.5 U/L
- AST Change from Baseline, Mean (Week 2, 0.05 mg/kg/d, n=40): −3.6, U/L
- AST Change from Baseline, Median (Week 2, 0.05 mg/kg/d, n=40): −3 U/L
- AST Observed Value, Mean (Week 2, 0.05 mg/kg/d, n=40): 29.0 U/L
- AST Observed Value, Median (Week 2, 0.05 mg/kg/d, n=40): 24.5 U/L
- Albumin Change from Baseline, Mean (Week 2, 0.05 mg/kg/d, n=40): -0.9 g/L
- Albumin Change from Baseline, Median (Week 2, 0.05 mg/kg/d, n=40): -1 g/L
- Albumin Observed Value, Mean (Week 2, 0.05 mg/kg/d, n=40): 41.5 g/L
- Albumin Observed Value, Median (Week 2, 0.05 mg/kg/d, n=40): 42 g/L
- Alkaline Phosphatase Change from Baseline, Mean (Week 2, 0.05 mg/kg/d, n=40): −12.5 U/L
- Alkaline Phosphatase Observed Value, Mean (Week 2, 0.05 mg/kg/d, n=40): 123.7 U/L
- Alkaline Phosphatase Observed Value, Median (Week 2, 0.05 mg/kg/d, n=40): 104 U/L
- Bilirubin Change from Baseline, Mean (Week 2, 0.05 mg/kg/d, n=40): -2.12 µmol/L
- Bilirubin Change from Baseline, Median (Week 2, 0.05 mg/kg/d, n=40): -1.85 µmol/L
- Bilirubin Observed Value, Mean (Week 2, 0.05 mg/kg/d, n=40): 10.29 µmol/L
- Bilirubin Observed Value, Median (Week 2, 0.05 mg/kg/d, n=40): 7.65 µmol/L
- Gamma Glutamyl Transferase Change from Baseline, Mean (Week 2, 0.05 mg/kg/d, n=40): 7.4 U/L
